pIC50: −log10 of the molar value.
What was measured:
MV4-11 = assay: Antiproliferative activity against human MV4-11 cells assessed as inhibition of cell growth incubated for 72 hrs by EZ-Cytox colorimetric assay; type: functional
MOLM-14 [1] = assay: Antiproliferative activity against human MOLM-14 cells assessed as inhibition of cell growth incubated for 72 hrs by EZ-Cytox colorimetric assay; type: functional
MOLM-14 [2] = assay: Antiproliferative activity against human MOLM-14 cells harboring FLT3 ITD/F691L double mutant assessed as inhibition of cell growth incubated for 72 hrs by EZ-Cytox colorimetric assay; type: functional
MOLM-14 [3] = assay: Antiproliferative activity against human MOLM-14 cells harboring FLT3 ITD/D835Y double mutant assessed as inhibition of cell growth incubated for 72 hrs by EZ-Cytox colorimetric assay; type: functional
[4] = molecular target: T1, Receptor-type tyrosine-protein kinase FLT3 (Homo sapiens, UniProt P36888); assay: Inhibition of human recombinant His-tagged FLT3 kinase domain (564 to 958 residues) expressed in baculovirus expression system incubated for 30 mins in presence of ATP by HTRF analysis
T1 sequence (P36888 whole entry): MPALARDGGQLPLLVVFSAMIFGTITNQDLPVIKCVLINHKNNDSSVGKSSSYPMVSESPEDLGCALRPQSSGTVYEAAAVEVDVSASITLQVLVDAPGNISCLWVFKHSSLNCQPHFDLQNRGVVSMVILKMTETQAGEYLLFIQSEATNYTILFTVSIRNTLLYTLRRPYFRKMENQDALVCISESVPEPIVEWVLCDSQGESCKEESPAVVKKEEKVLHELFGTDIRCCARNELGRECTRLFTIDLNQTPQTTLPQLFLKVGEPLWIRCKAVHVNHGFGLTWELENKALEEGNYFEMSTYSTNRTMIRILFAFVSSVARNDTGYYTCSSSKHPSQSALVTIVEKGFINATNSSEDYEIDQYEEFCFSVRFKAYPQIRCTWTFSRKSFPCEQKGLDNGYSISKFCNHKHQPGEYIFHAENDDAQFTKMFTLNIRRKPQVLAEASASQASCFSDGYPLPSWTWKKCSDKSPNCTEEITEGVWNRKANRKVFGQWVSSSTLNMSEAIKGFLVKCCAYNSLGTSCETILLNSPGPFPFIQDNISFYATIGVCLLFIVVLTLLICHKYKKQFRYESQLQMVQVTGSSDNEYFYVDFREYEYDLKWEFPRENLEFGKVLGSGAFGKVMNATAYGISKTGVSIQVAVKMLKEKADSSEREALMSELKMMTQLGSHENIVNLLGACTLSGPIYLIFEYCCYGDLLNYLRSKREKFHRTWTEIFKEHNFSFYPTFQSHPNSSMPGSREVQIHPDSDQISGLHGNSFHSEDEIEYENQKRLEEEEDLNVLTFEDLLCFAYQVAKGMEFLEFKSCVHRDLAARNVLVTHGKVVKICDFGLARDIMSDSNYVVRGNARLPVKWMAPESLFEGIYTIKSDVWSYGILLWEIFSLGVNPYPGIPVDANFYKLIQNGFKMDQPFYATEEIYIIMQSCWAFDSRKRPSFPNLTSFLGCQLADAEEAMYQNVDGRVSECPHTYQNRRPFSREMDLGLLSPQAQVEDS

[5] = molecular target: Receptor-type tyrosine-protein kinase FLT3 (Homo sapiens, UniProt P36888, D835Y); assay: Inhibition of human recombinant His-tagged FLT3/D835Y mutant expressed in baculovirus expression system incubated for 30 mins in presence of ATP by HTRF analysis
PC-3 = assay: Antiproliferative activity against human PC-3 cells assessed as inhibition of cell growth at 1 uM incubated for 72 hrs by EZ-Cytox colorimetric assay relative to control; type: functional
MDA-MB-231 = assay: Antiproliferative activity against human MDA-MB-231 cells assessed as inhibition of cell growth at 1 uM incubated for 72 hrs by EZ-Cytox colorimetric assay relative to control; type: functional
Huh-7 = assay: Antiproliferative activity against human Huh-7 cells assessed as inhibition of cell growth incubated for 72 hrs by EZ-Cytox colorimetric assay; type: functional
BaF3 [6] = assay: Antiproliferative activity against mouse BaF3 cells harboring FLT3 ITD mutant assessed as inhibition of cell growth incubated for 72 hrs by EZ-Cytox colorimetric assay; type: functional
A549 = assay: Antiproliferative activity against human A549 cells assessed as inhibition of cell growth at 1 uM incubated for 72 hrs by EZ-Cytox colorimetric assay relative to control; type: functional
BaF3 [7] = assay: Antiproliferative activity against mouse BaF3 cells harboring FLT3 ITD/D835Y double mutant assessed as inhibition of cell growth incubated for 72 hrs by EZ-Cytox colorimetric assay; type: functional
BaF3 [8] = assay: Antiproliferative activity against mouse BaF3 cells harboring FLT3 ITD/F691L double mutant assessed as inhibition of cell growth incubated for 72 hrs by EZ-Cytox colorimetric assay; type: functional
HCT-116 = assay: Antiproliferative activity against human HCT-116 cells assessed as inhibition of cell growth at 1 uM incubated for 72 hrs by EZ-Cytox colorimetric assay relative to control; type: functional
HepG2 = assay: Antiproliferative activity against human HepG2 cells assessed as inhibition of cell growth at 1 uM incubated for 72 hrs by EZ-Cytox colorimetric assay relative to control; type: functional
K562 = assay: Antiproliferative activity against human K562 cells assessed as inhibition of cell growth at 1 uM incubated for 72 hrs by EZ-Cytox colorimetric assay relative to control; type: functional
[9] = Volume of distribution at steady state in ICR mouse at 10 mg/kg, iv measured upto 24 hrs; type: ADME, organism-based; details: in vivo, read-out: Vdss
[10] = Half life in ICR mouse at 10 mg/kg, iv measured upto 24 hrs; type: ADME, organism-based; details: in vivo
[11] = AUClast in ICR mouse at 10 mg/kg, iv measured upto 24 hrs; type: ADME, organism-based; parameters: time < 24 hrs, dose 10 mg/kg, route iv; details: in vivo
[12] = Clearance in ICR mouse at 10 mg/kg, iv measured upto 24 hrs; type: ADME, organism-based; details: in vivo

Structure (SMILES)	GI50 (MV4-11)	GI50 (MOLM-14 [1])	GI50 (MOLM-14 [3])	pIC50 [4]	pIC50 [5]	other results
O=C1Nc2ccc(F)cc2/C1=C1/Nc2ccccc2/C1=N\OCCN1CCNCC1	3.69 nM	25.3 nM	23.1 nM			GI50 (MOLM-14 [2]): 75.6 nM
COc1ccc2c(c1)/C(=C1/Nc3ccccc3/C1=N\OCC(=O)N1CCNCC1)C(=O)N2	8.39 nM	40.4 nM	36.4 nM	8.78	8.79	
O=C(CO/N=C1/C(=C2/C(=O)Nc3ccc(F)cc32)Nc2ccccc21)NC1CCNCC1	3.27 nM	18.6 nM	25.8 nM	8.58	8.67	
O=C(CO/N=C1/C(=C2/C(=O)Nc3ccccc32)Nc2ccccc21)N[C@H]1CCNC1	0.68 nM	5.35 nM	4.88 nM	9.19	9.70	GI50 (MOLM-14 [2]): 10.7 nM
O=C1Nc2ccc(I)cc2/C1=C1/Nc2ccccc2/C1=N\OCC(=O)N1CCNCC1	3.72 nM	23.7 nM	20.9 nM	9.10	9.35	
CN1CC[C@@H](NC(=O)CO/N=C2/C(=C3/C(=O)Nc4ccccc43)Nc3ccccc32)C1	10.5 nM	30.2 nM	28.6 nM	8.85	8.66	
CCc1nc(C(N)=O)c(Nc2ccc(N3CCC(N4CCN(C)CC4)CC3)c(OC)c2)cc1NC1CCOCC1	8.2 nM	35.4 nM	19.4 nM			inhibition at 1 µM (PC-3): 44.3%; inhibition at 1 µM (MDA-MB-231): 42.1%; GI50 (Huh-7): 435 nM; GI50 (MOLM-14 [2]): 70.1 nM; GI50 (BaF3 [6]): 1.9 nM; inhibition at 1 µM (A549): 4.31%; GI50 (BaF3 [7]): 2.45 nM; GI50 (BaF3 [8]): 38 nM; inhibition at 1 µM (HCT-116): 47.7%; inhibition at 1 µM (HepG2): 46.9%; inhibition at 1 µM (K562): 74.6%
CN1CC[C@H](NC(=O)CO/N=C2/C(=C3/C(=O)Nc4ccccc43)Nc3ccccc32)C1	6.12 nM	22.1 nM	21.1 nM	8.70	8.72	
NC1CCN(C(=O)CO/N=C2/C(=C3/C(=O)Nc4ccc(Cl)cc43)Nc3ccccc32)CC1	10.5 nM	40.3 nM	43.2 nM	8.74	8.87	
CN1CCC(NC(=O)CO/N=C2/C(=C3/C(=O)Nc4ccccc43)Nc3ccccc32)CC1	43.6 nM	133 nM	56.3 nM	7.80	7.27	
CN1CCC(NC(=O)CO/N=C2/C(=C3/C(=O)Nc4ccc(F)cc43)Nc3ccccc32)CC1	38.7 nM	75.9 nM	60.6 nM	8.14	7.84	
NC1CCN(C(=O)CO/N=C2/C(=C3/C(=O)Nc4ccccc43)Nc3ccccc32)CC1	17.3 nM	48.6 nM	38.9 nM	8.68	8.51	
O=C1Nc2ccc(F)cc2/C1=C1/Nc2ccccc2/C1=N\OCCC(=O)N1CCNCC1	29.5 nM	111 nM	112 nM	8.91	8.47	
O=C(CO/N=C1/C(=C2/C(=O)Nc3ccc(Cl)cc32)Nc2ccccc21)NC1CCNCC1	1.08 nM	8.56 nM	35.1 nM	8.93	8.97	
CN1CC(NC(=O)CO/N=C2/C(=C3/C(=O)Nc4ccccc43)Nc3ccccc32)C1	2.61 nM	17.4 nM	17.9 nM	9.10	9.12	
O=C1Nc2ccccc2/C1=C1/Nc2ccccc2/C1=N\OCCC(=O)N1CCNCC1					8.54	

Structure (SMILES)	GI50 (MV4-11)	GI50 (MOLM-14 [1])	GI50 (MOLM-14 [3])	pIC50 [4]	pIC50 [5]	other results
O=C1Nc2ccc(Cl)cc2/C1=C1/Nc2ccccc2/C1=N\OCC(=O)N1CCNCC1	0.76 nM	7.22 nM	12.7 nM	9.57	9.70	
Cl.O=C(CO/N=C1/C(=C2/C(=O)Nc3ccccc32)Nc2ccccc21)N[C@@H]1CCNC1	0.52 nM	2.73 nM	3.49 nM	9.54	9.70	Vd [9]: 103 L/kg; half-life [10]: 3.7 h; GI50 (MOLM-14 [2]): 3.23 nM; AUC(0-t) at 24 h [11]: 367 ng·h/mL; clearance [12]: 323 mL/min/kg
O=C1Nc2ccc(F)cc2/C1=C1/Nc2ccccc2/C1=N\OCCS(=O)(=O)N1CCNCC1	842 nM			< 7.30	< 7.30	
CN1CCC(NC(=O)CO/N=C2/C(=C3/C(=O)Nc4ccc(Cl)cc43)Nc3ccccc32)CC1	16.2 nM	67 nM	123 nM	7.82	7.67	
CN1CCN(C(=O)CO/N=C2/C(=C3/C(=O)Nc4ccc(Cl)cc43)Nc3ccccc32)CC1	18.3 nM	103 nM	59.1 nM	8.89	9.41	
O=C(CO/N=C1/C(=C2/C(=O)Nc3ccccc32)Nc2ccccc21)NC1CCNCC1	7.01 nM	25.6 nM	23.8 nM	8.69	8.95	
O=C(CO/N=C1/C(=C2/C(=O)Nc3ccccc32)Nc2ccccc21)NC1CNC1	4.95 nM	19.6 nM	22.3 nM	8.31	8.49	
CN1CCN(C(=O)CO/N=C2/C(=C3/C(=O)Nc4ccccc43)Nc3ccccc32)CC1	12.2 nM	27.8 nM	23.5 nM	8.93	9.28	
O=C1Nc2ccc(OC(F)(F)F)cc2/C1=C1/Nc2ccccc2/C1=N\OCC(=O)N1CCNCC1	27.4 nM	71.9 nM	87.5 nM	8.44	8.79	
O=C1Nc2ccc(F)cc2/C1=C1/Nc2ccccc2/C1=N\OCC(=O)N1CCNCC1	1.23 nM	7.17 nM	7.13 nM	9.54	9.74	
O=C1Nc2ccc(F)cc2/C1=C1/Nc2ccccc2/C1=N\OCS(=O)(=O)N1CCNCC1	9.58 nM	46.2 nM	30.8 nM	8.48	8.57	
NC1CCN(C(=O)CO/N=C2/C(=C3/C(=O)Nc4ccc(F)cc43)Nc3ccccc32)CC1	9.76 nM	36.7 nM	28.1 nM	8.60	8.46	
CN1CCN(C(=O)CO/N=C2/C(=C3/C(=O)Nc4ccc(F)cc43)Nc3ccccc32)CC1	6.49 nM	28 nM	26.1 nM	9.03	9.46	
O=C1Nc2ccccc2/C1=C1/Nc2ccccc2/C1=N\OCS(=O)(=O)N1CCNCC1					8.42	
O=C1Nc2ccc(Br)cc2/C1=C1/Nc2ccccc2/C1=N\OCC(=O)N1CCNCC1	1.27 nM	13.9 nM	16.1 nM	9.17	9.66	

From ChEMBL document CHEMBL5120851, “Discovery of indirubin-3'-aminooxy-acetamide derivatives as potent and selective FLT3/D835Y mutant kinase inhibitors for acute myeloid leukemia” (Eur J Med Chem, 2022)
